These results are taken from paper PMC6152416, “Pharmacological and Toxicological Screening of Novel Benzimidazole-Morpholine Derivatives as Dual-Acting Inhibitors” (Molecules : A Journal of Synthetic Chemistry and Natural …, 2017).

Entries after “also recorded” stand apart in the source; their conditions may differ. Marks after values point to notes of the source that are not given here.

Data set [1] relates to Salmonella typhimurium TA100. The data set can be described thus: Ames MPF genotoxicity assay. The settings on record: for Ames MPF mutagenicity classification: TA100, with/without metabolic activation (S9). In kind it is cell-based. Here is the method:
(§1) The genotoxicity of selected compounds (2b, 2j, 2m) was determined by Ames assay using Ames MPF 98/100 mutagenicity assay sample kit (Xenometrix AG, Allschwil, Switzerland) as previously described elsewhere. Salmonella typhimurium strains, TA98 (frameshift mutations) and TA100 (base-pair substitutions) were used in the assay. The concentration of the compounds was between 16 and 5000 μg/mL, in accordance with the guideline. Compounds were prepared in six different concentrations (5.0, 2.5, 1.25, 0.625, 0.3125, 0.156 mg/mL) in DMSO. Mutagenic potential was determined in the absence or presence of Aroclor™-1254 induced male Sprague–Dawley rat liver microsomal enzyme (S9) mix (Xenometrix AG). Positive controls without S9 mix were 2-nitrofluorene (2.0 μg/mL) and 4-nitroquinoline N-oxide (0.1 μg/mL), whereas 1.0 μg/mL and 2.5 μg/mL of 2-aminoanthracene solutions were used as positive controls with S9 against TA98 and TA100, respectively. Solvent control was prepared with 4% DMSO. The end of an experiment was determined by the change of the indicator medium colour to yellow, which was originating from the decrease of pH due to revertant bacteria. Yellow wells were counted as positive, and compared with the negative control. Fold induction over the negative control and fold induction over the baseline were calculated (Fold induction over the negative control is accepted as the ratio of the mean number of positive wells for the dose concentration divided by the mean number of positive wells for the zero dose (negative) control. Fold induction over the baseline is accepted as the ratio of the mean number of positive wells for the dose concentration divided by zero dose baseline. The zero-dose baseline is obtained by adding one standard deviation to the mean number of positive wells of the zero dose control. If the baseline is less than 1, the value is set to 1 for calculation).
(§2) Mutagenicity was determined according to the criteria reported previously. For a baseline value of ≤3, significant increases between 2 and 3-fold of the baseline were classified as weak mutagen, and increases ≥3-fold of the baseline were classified as mutagen. […] As a rule, at least two adjacent doses with significant increases or a significant increase at the highest dose level should be observed for a mutagenic compound. All of the doses were compared according to Student’s t-test at p < 0.05 for statistical significance.

Data set [2] relates to Salmonella typhimurium TA98. The data set can be described thus: Ames MPF genotoxicity assay. The settings on record: for Ames MPF mutagenicity classification: TA98, in the presence/absence of metabolic activation (S9). In kind it is cell-based. Here is the method: as §1, §2
The target in data set [3] is T1, COX-2 (Homo sapiens, UniProt P35354).
T1 construct: purchased BioVision (Milpitas, CA, USA) K547-100
T1 sequence (P35354 18-604): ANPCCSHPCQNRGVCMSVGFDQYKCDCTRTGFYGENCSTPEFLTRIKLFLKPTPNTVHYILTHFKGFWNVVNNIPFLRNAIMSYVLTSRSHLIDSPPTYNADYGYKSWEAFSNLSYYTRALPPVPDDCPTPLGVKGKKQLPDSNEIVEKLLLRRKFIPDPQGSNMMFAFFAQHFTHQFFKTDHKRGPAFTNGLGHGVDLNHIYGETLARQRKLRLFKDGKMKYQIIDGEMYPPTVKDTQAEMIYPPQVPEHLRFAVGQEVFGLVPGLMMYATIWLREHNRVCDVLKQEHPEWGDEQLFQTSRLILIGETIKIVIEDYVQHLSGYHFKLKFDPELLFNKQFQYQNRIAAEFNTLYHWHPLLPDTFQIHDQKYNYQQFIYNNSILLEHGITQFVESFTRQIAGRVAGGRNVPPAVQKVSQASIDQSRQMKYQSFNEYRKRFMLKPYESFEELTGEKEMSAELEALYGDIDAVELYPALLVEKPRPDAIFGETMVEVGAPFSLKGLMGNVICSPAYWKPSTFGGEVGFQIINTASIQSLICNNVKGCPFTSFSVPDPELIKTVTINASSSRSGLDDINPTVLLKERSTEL
The data set can be described thus: Fluorimetric COX-2 inhibition screening kit (BioVision). The settings on record: for COX-2 inhibition at the initial concentrations: 10^−3 M and 10^−4 M; for inhibition at 10 µM: 10^−5 M; for inhibition at 1 µM: 10^−6 M, read-out: COX 2 Inhibition %; for inhibition at 0.1 µM: 10^−7 M; for inhibition at 0.01 µM: 10^−8 M; for inhibition at 0.001 µM: 10^−9 M. In kind it is biochemical. The method, then: (§3) Inhibitory potency of the compounds on COX-1 and COX-2 enzymes was determined by using fluorimetric COX-1 and COX-2 inhibition screening kits from BioVision (Milpitas, CA, USA). The experimental protocol as described in the guides provided by the supplier was followed. All of the pipetting were performed using a robotized system to increase speed, accuracy and precision. Fluorescence intensities of the samples were kinetically measured at 25 °C for 5–10 min by monitoring emissions at 587 nm after excitation at 535 nm. Two appropriate points (T1 and T2) in the linear range of the plot were chosen and the corresponding fluorescence values (RFU1 and RFU2) were obtained. The slope for all samples including Enzyme Control (EC) was calculated by dividing the net ΔRFU (RFU2 − RFU1) values by the time ΔT (T2 − T1). Percentage of relative inhibition was calculated by using the following equation:% Relative inhibition = (Slope of EC − Slope of S/Slope of EC) × 100 where S is the term representing the tested compound [51, 52]. […] The IC50 values were calculated using the plots of the enzyme activity against concentrations by applying regression analyses.

The target of data set [4] is T2, COX-1 (Ovis aries, UniProt P05979).
T2 construct: purchased BioVision (Milpitas, CA, USA) K548-100
T2 sequence (P05979 25-600): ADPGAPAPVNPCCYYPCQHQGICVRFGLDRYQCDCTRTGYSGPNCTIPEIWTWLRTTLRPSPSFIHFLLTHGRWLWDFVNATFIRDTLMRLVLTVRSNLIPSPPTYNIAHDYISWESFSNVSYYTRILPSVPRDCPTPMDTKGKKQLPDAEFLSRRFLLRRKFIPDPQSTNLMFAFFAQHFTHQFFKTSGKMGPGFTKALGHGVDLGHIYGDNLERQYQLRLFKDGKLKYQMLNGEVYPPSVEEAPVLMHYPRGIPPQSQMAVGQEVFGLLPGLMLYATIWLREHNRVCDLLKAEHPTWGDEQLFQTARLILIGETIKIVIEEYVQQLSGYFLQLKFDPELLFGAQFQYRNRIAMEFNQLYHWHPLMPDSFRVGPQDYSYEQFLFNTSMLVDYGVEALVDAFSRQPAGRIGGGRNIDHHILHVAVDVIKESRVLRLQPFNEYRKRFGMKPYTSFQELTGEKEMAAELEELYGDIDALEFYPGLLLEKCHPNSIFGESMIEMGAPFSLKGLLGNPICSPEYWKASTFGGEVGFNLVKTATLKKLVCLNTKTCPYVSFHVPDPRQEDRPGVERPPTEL
The data set can be described thus: Fluorimetric COX-1 inhibition screening kit (BioVision). In kind it is biochemical. The following applies: for COX-1 inhibition at the initial concentrations: 10^−3 M and 10^−4 M; for inhibition at 10 µM: 10^−5 M; for inhibition at 1 µM: 10^−6 M; for inhibition at 0.1 µM: 10^−7 M; for inhibition at 0.01 µM: 10^−8 M; for inhibition at 0.001 µM: 10^−9 M. The method, then:
as §3

Turning to `COc1ccc(-c2nc3ccccc3n2CCN2CCOCC2)cc1` [Compound 2b, 2-(4-Methoxyphenyl)-1-[2-(morpholin-4-yl)ethyl]-1H-benzimidazole], the “REVERTANTS Fold Increase (over Baseline)” value is recorded as 0.06 in data set [1] (TA100, S9+, 0.156 mg/mL); 0.52 in data set [1] (TA100, S9+, 0.3125 mg/mL); 0.45 in data set [1] (TA100, S9+, 0.625 mg/mL); 0.26 in data set [1] (TA100, S9+, 1.25 mg/mL); 0.26 in data set [1] (TA100, S9+, 2.5 mg/mL); 0.13 in data set [1] (TA100, S9+, 5 mg/mL). The “REVERTANTS Fold Increase (over Baseline)” value in data set [1] (TA100, S9−, 0.156 mg/mL) is recorded as 1.31 ***; in data set [1] (TA100, S9−, 0.3125 mg/mL), 1.37 ***; in data set [1] (TA100, S9−, 0.625 mg/mL), 0.69; in data set [1] (TA100, S9−, 1.25 mg/mL) it was 0.62; in data set [1] (TA100, S9−, 2.5 mg/mL), 0.25 ***; in data set [1] (TA100, S9−, 5 mg/mL), 0.44 *. For the same molecule, the “REVERTANTS Fold Increase (over Baseline)” value in data set [2] (TA98, S9+, 0.156 mg/mL) was determined as 0.16; in data set [2] (TA98, S9+, 0.3125 mg/mL), 0.32; in data set [2] (TA98, S9+, 0.625 mg/mL), 0.00; in data set [2] (TA98, S9+, 1.25 mg/mL), 0.48; in data set [2] (TA98, S9+, 2.5 mg/mL), 0.80; in data set [2] (TA98, S9+, 5 mg/mL), 1.27. Moreover, the “REVERTANTS Fold Increase (over Baseline)” value in data set [2] (TA98, S9−, 0.156 mg/mL) came to 0.69; in data set [2] (TA98, S9−, 0.3125 mg/mL), 0.75; in data set [2] (TA98, S9−, 0.625 mg/mL), 0.81; in data set [2] (TA98, S9−, 1.25 mg/mL), 0.40; in data set [2] (TA98, S9−, 2.5 mg/mL), 0.40; in data set [2] (TA98, S9−, 5 mg/mL), 0.75. Moreover, the “Ames MPF mutagenicity classification” value in data set [1] is “non-genotoxic”; in data set [2], “non-genotoxic; also recorded: non-mutagenic”. Also, the IC50 worked out at 8.37 µM in data set [3] and 8.1 µM in data set [4]. The entries for the “COX-2 Inhibition (%)” value in data set [3] (10^-3 M) and in data set [3] (10^-4 M) were 79.41% and 84.23%, respectively. Also, the “COX-2 inhibition at the initial concentrations” value in data set [3] was “more than 50%”. In addition, the inhibition at 10 µM amounted to 57.9 ± 1.28% in data set [3] and 59.4 ± 1.24% in data set [4]. Moreover, the figures for the inhibition at 1 µM in data set [3] and in data set [4] were 43.7 ± 1.12% and 42.8 ± 1.02%, respectively. Also, the inhibition at 0.1 µM amounted to 38.1 ± 0.97% in data set [3] and 37.1 ± 0.92% in data set [4]. Besides, the results for the inhibition at 0.01 µM in data set [3] and in data set [4] were 27.4 ± 0.87% and 26.8 ± 0.87%, respectively. Further, the inhibition at 0.001 µM in data set [3] was determined as 21.4 ± 0.74%; in data set [4], 19.6 ± 0.76%. Besides, the “COX-1 Inhibition (%)” value in data set [4] (10^-3 M) amounted to 90.12%; in data set [4] (10^-4 M), 87.62%. Further, the “COX-1 inhibition at the initial concentrations” value in data set [4] was “more than 50%”.
`Clc1ccc(-c2nc3ccccc3n2CCN2CCOCC2)cc1` [Compound 2c, 2-(4-Chlorophenyl)-1-[2-(morpholin-4-yl)ethyl]-1H-benzimidazole]: the “COX-2 Inhibition (%)” value was found to be 17.85% in data set [3] (10^-3 M) and 20.99% in data set [3] (10^-4 M). The entries for the “COX-1 Inhibition (%)” value in data set [4] (10^-3 M) and in data set [4] (10^-4 M) were 24.55% and 22.15%, respectively.
Taken in the same sequence, the figures for `CC(C)c1ccc(-c2nc3ccccc3n2CCN2CCOCC2)cc1` [Compound 2e, 2-(4-Isopropylphenyl)-1-[2-(morpholin-4-yl)ethyl]-1H-benzimidazole] were 14.26%, 22.61%, 26.47% and 19.88%.
Turning to `CCOc1ccc(-c2nc3ccccc3n2CCN2CCOCC2)cc1` [Compound 2j, 2-(4-Ethoxyphenyl)-1-[2-(morpholin-4-yl)ethyl]-1H-benzimidazole], the “REVERTANTS Fold Increase (over Baseline)” value in data set [1] (TA100, S9+, 0.156 mg/mL) amounted to 0.15; in data set [1] (TA100, S9+, 0.3125 mg/mL), 0.00; in data set [1] (TA100, S9+, 0.625 mg/mL) it was 0.15; in data set [1] (TA100, S9+, 1.25 mg/mL), 0.38; in data set [1] (TA100, S9+, 2.5 mg/mL) it was 0.31; in data set [1] (TA100, S9+, 5 mg/mL), 0.15. For the same molecule, the “REVERTANTS Fold Increase (over Baseline)” value is recorded as 0.80 in data set [1] (TA100, S9−, 0.156 mg/mL); 1.00 in data set [1] (TA100, S9−, 0.3125 mg/mL); 0.40 in data set [1] (TA100, S9−, 0.625 mg/mL); 0.67 in data set [1] (TA100, S9−, 1.25 mg/mL); 0.67 *** in data set [1] (TA100, S9−, 2.5 mg/mL); 1.20 in data set [1] (TA100, S9−, 5 mg/mL). Moreover, the “REVERTANTS Fold Increase (over Baseline)” value was 0.25 in data set [2] (TA98, S9+, 0.156 mg/mL); 0.12 * in data set [2] (TA98, S9+, 0.3125 mg/mL); 0.62 in data set [2] (TA98, S9+, 0.625 mg/mL); 0.74 in data set [2] (TA98, S9+, 1.25 mg/mL); 0.12 in data set [2] (TA98, S9+, 2.5 mg/mL); 0.74 * in data set [2] (TA98, S9+, 5 mg/mL). In addition, the “REVERTANTS Fold Increase (over Baseline)” value in data set [2] (TA98, S9−, 0.156 mg/mL) is recorded as 0.60; in data set [2] (TA98, S9−, 0.3125 mg/mL) it was 0.94; in data set [2] (TA98, S9−, 0.625 mg/mL), 0.68; in data set [2] (TA98, S9−, 1.25 mg/mL), 0.60; in data set [2] (TA98, S9−, 2.5 mg/mL), 0.94; in data set [2] (TA98, S9−, 5 mg/mL) it was 0.09 ***. The “Ames MPF mutagenicity classification” value in data set [1] and in data set [2] was “non-genotoxic; also recorded: non-mutagenic” in each case. Further, the IC50 was 13.1 µM in data set [3] and 14.2 µM in data set [4]. Also, the “COX-2 Inhibition (%)” value in data set [3] (10^-3 M) is listed as 80.66%; in data set [3] (10^-4 M), 79.23%. Further, in data set [3], the “COX-2 inhibition at the initial concentrations” value is “more than 50%”. Moreover, the inhibition at 10 µM in data set [3] is 52.5 ± 1.35%; in data set [4] it was 51.4 ± 1.15%. Besides, the figures for the inhibition at 1 µM in data set [3] and in data set [4] were 43.4 ± 1.27% and 44.5 ± 1.07%, respectively. The inhibition at 0.1 µM is 34 ± 1.06% in data set [3] and 37.7 ± 0.76% in data set [4]. The inhibition at 0.01 µM turned out to be 26.9 ± 0.86% in data set [3] and 27.5 ± 0.82% in data set [4]. Besides, the figures for the inhibition at 0.001 µM in data set [3] and in data set [4] were 20.5 ± 0.76% and 23.4 ± 0.61%, respectively. Also, the “COX-1 Inhibition (%)” value is given as 85.07% in data set [4] (10^-3 M) and 88.68% in data set [4] (10^-4 M). For the same molecule, in data set [4], the “COX-1 inhibition at the initial concentrations” value is listed as “more than 50%”.
